Source: PubChem BioAssay AID1845202 (Molecular Pharmacology Branch, DTP, NCI, 2023)

Tested on: DMS 114 tumor spheroids, viability % test/control
Assay: Anticancer human tumor DMS 114 cell line growth inhibition;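 also: spheroids exposed to compounds for 7 days before read-out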;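 as to viability, T/C: luminescence used as a proxy for viable cells; 100% = DMSO vehicle control viability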
Conditions: spheroids with HUVEC and MSC; for viability, T/C: stronger effect = lower value
Outline: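 Complex spheroids of malignant cells with endothelial cells and mesenchymal stem cells; agents alone or combined, from near clinical Cmax (or 10 microM if unknown) down in half-log steps, 0.25% DMSO final.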

[1] = curve of first compound, second compound 30 pM
[2] = curve of first compound, second compound 94.9 pM
[3] = curve of first compound, second compound 0.0003 µM
[4] = curve of first compound, second compound 0.000949 µM
[5] = curve of first compound, second compound 0.003 µM
[6] = second compound 30 pM, first compound 0.0316 µM
[7] = second compound 30 pM, first compound 0.1 µM
[8] = second compound 30 pM, first compound 0.316 µM
[9] = second compound 30 pM, first compound 1 µM
[10] = second compound 30 pM, first compound 3.16 µM
[11] = second compound 30 pM, first compound 10 µM
[12] = second compound 94.9 pM, first compound 0.0316 µM
[13] = second compound 94.9 pM, first compound 0.1 µM
[14] = second compound 94.9 pM, first compound 0.316 µM
[15] = second compound 94.9 pM, first compound 1 µM
[16] = second compound 94.9 pM, first compound 3.16 µM
[17] = second compound 94.9 pM, first compound 10 µM
[18] = second compound 0.0003 µM, first compound 0.0316 µM
[19] = second compound 0.0003 µM, first compound 0.1 µM
[20] = second compound 0.0003 µM, first compound 0.316 µM
[21] = second compound 0.0003 µM, first compound 1 µM
[22] = second compound 0.0003 µM, first compound 3.16 µM
[23] = second compound 0.0003 µM, first compound 10 µM
[24] = second compound 0.000949 µM, first compound 0.0316 µM
[25] = second compound 0.000949 µM, first compound 0.1 µM
[26] = second compound 0.000949 µM, first compound 0.316 µM
[27] = second compound 0.000949 µM, first compound 1 µM
[28] = second compound 0.000949 µM, first compound 3.16 µM
[29] = second compound 0.000949 µM, first compound 10 µM
[30] = second compound 0.003 µM, first compound 0.0316 µM
[31] = second compound 0.003 µM, first compound 0.1 µM
[32] = second compound 0.003 µM, first compound 0.316 µM
[33] = second compound 0.003 µM, first compound 1 µM
[34] = second compound 0.003 µM, first compound 3.16 µM
[35] = second compound 0.003 µM, first compound 10 µM

COc1ccc([C@@H](O)c2cc(-c3ncnc4cc(N5CCOCC5)ccc34)c(F)cc2Cl)nn1 + COc1cc2c(cc1O)CCNC21CSC2c3c(OC(C)=O)c(C)c4c(c3C(COC1=O)N1C(O)C3Cc5cc(C)c(OC)c(O)c5C(C21)N3C)OCO4
IC50 [1]: 4790 nM | IC50 [2]: 1680 nM | IC50 [3]: < 31.6 nM | IC50 [4]: < 31.6 nM | IC50 [5]: < 31.6 nM | viability, T/C [6]: 113% | viability, T/C [7]: 99.8% | viability, T/C [8]: 102% | viability, T/C [9]: 96.7% | viability, T/C [10]: 63.7% | viability, T/C [11]: 25.1% | viability, T/C [12]: 108% | viability, T/C [13]: 101% | viability, T/C [14]: 92.9% | viability, T/C [15]: 65.2% | viability, T/C [16]: 31.3% | viability, T/C [17]: 13.3% | viability, T/C [18]: 39.6% | viability, T/C [19]: 37.6% | viability, T/C [20]: 35.7% | viability, T/C [21]: 13.4% | viability, T/C [22]: 5.07% | viability, T/C [23]: 2.36% | viability, T/C [24]: 3.78% | viability, T/C [25]: 3.32% | viability, T/C [26]: 1.74% | viability, T/C [27]: 0.47% | viability, T/C [28]: 0.07% | viability, T/C [29]: 0.17% | viability, T/C [30]: 0.25% | viability, T/C [31]: 0.28% | viability, T/C [32]: 0.28% | viability, T/C [33]: 0.31% | viability, T/C [34]: 0.29% | viability, T/C [35]: 0.36%

CC1COCCN1c1cc(-c2ccnn2C)c2ccnc(-c3ccn[nH]3)c2n1 (stereo unspecified) + COc1cc2c(cc1O)CCNC21CSC2c3c(OC(C)=O)c(C)c4c(c3C(COC1=O)N1C(O)C3Cc5cc(C)c(OC)c(O)c5C(C21)N3C)OCO4
IC50 [1]: < 31.6 nM | IC50 [2]: < 31.6 nM | IC50 [3]: < 31.6 nM | IC50 [4]: < 31.6 nM | IC50 [5]: < 31.6 nM | viability, T/C [6]: 28.2% | viability, T/C [7]: 21.9% | viability, T/C [8]: 17.3% | viability, T/C [9]: 11.8% | viability, T/C [10]: 7.86% | viability, T/C [11]: 10.1% | viability, T/C [12]: 17.6% | viability, T/C [13]: 15.9% | viability, T/C [14]: 12.1% | viability, T/C [15]: 9.53% | viability, T/C [16]: 6.98% | viability, T/C [17]: 8.67% | viability, T/C [18]: 9.96% | viability, T/C [19]: 7.98% | viability, T/C [20]: 7.58% | viability, T/C [21]: 5.84% | viability, T/C [22]: 4.87% | viability, T/C [23]: 5.28% | viability, T/C [24]: 1.57% | viability, T/C [25]: 1.39% | viability, T/C [26]: 1.26% | viability, T/C [27]: 0.89% | viability, T/C [28]: 1.12% | viability, T/C [29]: 0.45% | viability, T/C [30]: 0.2% | viability, T/C [31]: 0.22% | viability, T/C [32]: 0.15% | viability, T/C [33]: 0.15% | viability, T/C [34]: 0.12% | viability, T/C [35]: 0.22%

COc1cc2c(cc1O)CCNC21CSC2c3c(OC(C)=O)c(C)c4c(c3C(COC1=O)N1C(O)C3Cc5cc(C)c(OC)c(O)c5C(C21)N3C)OCO4 (stereo unspecified)
viability, T/C (compound 30 pM): 102% [middle of 10 runs] | viability, T/C (compound 94.9 pM): 102% [middle of 10 runs] | viability, T/C (compound 0.0003 µM): 41.4% [middle of 10 runs] | viability, T/C (compound 0.000949 µM): 4.04% [middle of 10 runs] | viability, T/C (compound 0.003 µM): 0.21% [middle of 7 runs] | IC50 (compound alone, run of 10/25/2019): 0.253 nM [middle of 10 runs]

Cc1cc(C)c(CNC(=O)c2cc(-c3ccc(CN4CCOCC4)cc3)cc3c2cnn3C2CCCC2)c(=O)[nH]1 + CC[C@@]1(O)C(=O)OCc2c1cc1n(c2=O)Cc2cc3c(CN(C)C)c(O)ccc3nc2-1
IC50 [5]: > 10000 nM | IC50 (curve of first compound, second compound 0.00949 µM): > 10000 nM | IC50 (curve of first compound, second compound 0.03 µM): < 31.6 nM | IC50 (curve of first compound, second compound 0.0949 µM): < 31.6 nM | IC50 (curve of first compound, second compound 0.3 µM): < 31.6 nM | viability, T/C [30]: 112% | viability, T/C [31]: 117% | viability, T/C [32]: 108% | viability, T/C [33]: 106% | viability, T/C [34]: 98.2% | viability, T/C [35]: 59.6% | viability, T/C (second compound 0.00949 µM, first compound 0.0316 µM): 96.2% | viability, T/C (second compound 0.00949 µM, first compound 0.1 µM): 105% | viability, T/C (second compound 0.00949 µM, first compound 0.316 µM): 95.4% | viability, T/C (second compound 0.00949 µM, first compound 1 µM): 97.1% | viability, T/C (second compound 0.00949 µM, first compound 3.16 µM): 84.9% | viability, T/C (second compound 0.00949 µM, first compound 10 µM): 58.9% | viability, T/C (second compound 0.03 µM, first compound 0.0316 µM): 33.3% | viability, T/C (second compound 0.03 µM, first compound 0.1 µM): 39.5% | viability, T/C (second compound 0.03 µM, first compound 0.316 µM): 28.3% | viability, T/C (second compound 0.03 µM, first compound 1 µM): 35.5% | viability, T/C (second compound 0.03 µM, first compound 3.16 µM): 32.1% | viability, T/C (second compound 0.03 µM, first compound 10 µM): 30.7% | viability, T/C (second compound 0.0949 µM, first compound 0.0316 µM): 16% | viability, T/C (second compound 0.0949 µM, first compound 0.1 µM): 15.5% | viability, T/C (second compound 0.0949 µM, first compound 0.316 µM): 14.8% | viability, T/C (second compound 0.0949 µM, first compound 1 µM): 16% | viability, T/C (second compound 0.0949 µM, first compound 3.16 µM): 17.2% | viability, T/C (second compound 0.0949 µM, first compound 10 µM): 15.5% | viability, T/C (second compound 0.3 µM, first compound 0.0316 µM): 9.14% | viability, T/C (second compound 0.3 µM, first compound 0.1 µM): 9.67% | viability, T/C (second compound 0.3 µM, first compound 0.316 µM): 9.76% | viability, T/C (second compound 0.3 µM, first compound 1 µM): 10.1% | viability, T/C (second compound 0.3 µM, first compound 3.16 µM): 12.1% | viability, T/C (second compound 0.3 µM, first compound 10 µM): 17.6%
